# In patent US10781185B2, “Heterocyclic compounds for the inhibition of PASK” (BioEnergenix LLC, priority 2009, dated 2020):
# pIC50: −log10 of the molar value.
# Assays:
# PASK [1] = biological target: PASK (Homo sapiens (Human), UniProt Q96RG2); test: PAS Kinase Luminescence Assay (Kinase-Glo); format: biochemical; conditions: purified hPASK from insect cells, read-out: IC50 Kinase Domain
# Experimental: Biochemical Assay for hPASK Activity
# PAS Kinase Luminescence Assay
# One assay for purified hPASK activity utilizes the Kinase-Glo Luminescent Kinase Assay (Promega), which quantifies the amount of ATP remaining in solution following kinase reaction. The assay is carried out in a 96-well plate format and is performed by adding a volume of Kinase-Glo Reagent (Promega, catalog # V3771) equal to the volume of solution in the well of a completed kinase reaction. Kinase-Glo reagent contains Luciferase and its substrate. After addition to a kinase reaction it allows to measure luminescence. The amount of ATP left in solution at the time of Kinase-Glo Plus addition is directly proportional to the luminescence that is measured in each well, and inversely correlated with kinase activity.
# Purified hPASK from insect cells (0.02 μg) is added to a 50 μL reaction mix containing 40 mM HEPES (pH 7.0), 100 mM KCl, 5 mM MgCl2, 1 mM DTT and […] of MBP protein. Inhibitory compounds are then added and the mixture is incubated for 10 min at 25° C. before adding 5 μL of ATP (at desired concentration). The reaction is allowed to proceed at 25° C. for 1 hour before adding 50 μL of Kinase-Glo reagent. The luminescence is measured as soon as 10 minutes after Kinase-Glo reagent is added.
# PASK [2] = biological target: PASK (UniProt # Q96RG2; human recombinant N-terminal GST tagged construct, residues 879-1323) (Homo sapiens (Human), UniProt Q96RG2); test: PASK ATP Radiochemical Assay; format: biochemical; conditions: 33P-ATP radiochemical, Myelin Basic Protein substrate; read-out: IC50 Kinase Domain
# Sequence of PASK (UniProt # Q96RG2; human recombinant N-terminal GST tagged construct, residues 879-1323) (Homo sapiens (Human), UniProt Q96RG2) (Q96RG2 879-1323, change not shown): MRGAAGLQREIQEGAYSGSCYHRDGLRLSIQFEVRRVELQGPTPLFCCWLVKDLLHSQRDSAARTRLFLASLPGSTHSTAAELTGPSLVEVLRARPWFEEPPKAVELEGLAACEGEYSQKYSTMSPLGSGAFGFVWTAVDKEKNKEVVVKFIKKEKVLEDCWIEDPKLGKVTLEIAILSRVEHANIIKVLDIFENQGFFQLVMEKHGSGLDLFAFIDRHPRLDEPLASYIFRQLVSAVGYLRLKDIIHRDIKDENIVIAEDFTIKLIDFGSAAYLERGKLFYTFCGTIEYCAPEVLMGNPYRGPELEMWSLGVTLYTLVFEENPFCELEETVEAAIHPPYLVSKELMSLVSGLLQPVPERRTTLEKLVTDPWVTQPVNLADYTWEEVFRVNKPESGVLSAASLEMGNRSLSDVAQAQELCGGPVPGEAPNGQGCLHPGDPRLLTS
# Experimental: PASK ATP Radiochemical Assay
# Test compounds in DMSO are then added and the mixture, followed by delivery of ^33P-ATP (specific activity 0.01 μCi/μl final) to initiate the reaction. […] The entire reaction mixture is washed through onto a P81 Phosphocellulose paper and washed three times for 10 minutes in 75 mM phosphoric acid and once in methanol prior to drying and scintillation counting.
# Sequence of PASK (Homo sapiens (Human), UniProt Q96RG2) (Q96RG2 999-1251): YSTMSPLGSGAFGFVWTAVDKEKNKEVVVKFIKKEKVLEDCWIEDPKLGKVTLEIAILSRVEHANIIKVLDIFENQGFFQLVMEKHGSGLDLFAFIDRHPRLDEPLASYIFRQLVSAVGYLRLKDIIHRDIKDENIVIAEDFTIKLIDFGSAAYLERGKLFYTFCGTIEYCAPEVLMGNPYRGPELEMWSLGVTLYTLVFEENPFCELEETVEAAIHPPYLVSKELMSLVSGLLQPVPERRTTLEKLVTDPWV
Structure (SMILES),pIC50 (PASK [1]),pIC50 (PASK [2])
"COc1ccc(C2CCN(c3nc4cc(C(=O)O)ccc4nc3-c3ccccc3)CC2)cc1 [Example 11, 3-(4-(4-Methoxyphenyl)piperidin-1-yl)-2-phenylquinoxaline-6-carboxylic acid]",> 5.00,
"O=C(O)c1ccc2nc(-c3ccccc3)c(N3CCOCC3)nc2c1 [Example 16, 3-Morpholino-2-phenylquinoxaline-6-carboxylic acid]",> 5.00,> 5.00
"CN1CCCN(c2nc3cc(C(=O)O)ccc3nc2-c2ccccc2)CC1 [Example 17, 3-(4-Methyl-1,4-diazepan-1-yl)-2-phenylquinoxaline-6-carboxylic acid]",> 5.00,> 5.00
"O=C(O)c1ccc2nc(-c3ccccc3)c(N3CCN(c4ncccn4)CC3)nc2c1 [Example 19, 2-Phenyl-3-(4-(pyrimidin-2-yl)piperazin-1-yl)quinoxaline-6-carboxylic acid]",> 5.00,> 5.00
"O=C(O)c1ccc2nc(-c3ccccc3)c(N3CCN(c4ccc(C(F)(F)F)cn4)CC3)nc2c1 [Example 20, 2-Phenyl-3-(4-(5-(trifluoromethyl)pyridin-2-yl)piperazin-1-yl)quinoxaline-6-carboxylic acid]",> 5.00,> 5.00
"O=C(O)c1ccc2nc(-c3ccccc3)c(N3CCN(c4ccc5ccccc5n4)CC3)nc2c1 [Example 21, 2-phenyl-3-(4-(quinolin-2-yl)piperazin-1-yl)quinoxaline-6-carboxylic acid]",> 5.00,> 5.00
"O=C(O)c1ccc2nc(N3CCCCCC3)c(-c3ccccc3)nc2c1 [Example 22, 2-(Azepan-1-yl)-3-phenylquinoxaline-6-carboxylic acid]",< 5.00,
"O=C(O)c1ccc2nc(N3CCCCC3)c(-c3ccccc3)nc2c1 [Example 23, 3-Phenyl-2-(piperidin-1-yl)quinoxaline-6-carboxylic acid]",> 5.00,
"O=C(O)c1ccc2nc(N3CCC(c4ccc(Cl)cc4)CC3)c(-c3ccc(F)cc3)nc2c1 [Example 24, 2-(4-(4-Chlorophenyl)piperidin-1-yl)-3-(4-fluorophenyl)quinoxaline-6-carboxylic acid]",> 5.00,> 5.00
"O=C(O)c1ccc2nc(N3CCC(c4cccc(Cl)c4)CC3)c(-c3ccc(F)cc3)nc2c1 [Example 25, 2-(4-(3-Chlorophenyl)piperidin-1-yl)-3-(4-fluorophenyl)quinoxaline-6-carboxylic acid]",> 5.00,
"COc1ccc(C2CCN(c3nc4ccc(C(=O)O)cc4nc3-c3ccc(F)cc3)CC2)cc1 [Example 26, 3-(4-Fluorophenyl)-2-(4-(4-methoxyphenyl)piperidin-1-yl)quinoxaline-6-carboxylic acid]",> 5.00,> 5.00
"O=C(O)c1ccc2nc(N3CCN(c4ccccn4)CC3)c(-c3ccc(F)cc3)nc2c1 [Example 27, 3-(4-Fluorophenyl)-2-(4-(pyridin-2-yl)piperazin-1-yl)quinoxaline-6-carboxylic acid]",> 5.00,
"O=C(O)c1ccc2nc(N3CCC(c4ccc(C(F)(F)F)cc4)CC3)c(-c3ccc(F)cc3)nc2c1 [Example 29, 3-(4-Fluorophenyl)-2-(4-(4-(trifluoromethyl)phenyl)piperidin-1-yl)quinoxaline-6-carboxylic acid]",> 5.00,< 5.00
"O=C(O)c1ccc2nc(N3CCC(c4ccccc4)CC3)c(N3CCC(c4ccccc4)CC3)nc2c1 [Example 30, 2,3-Bis(4-phenylpiperidin-1-yl)quinoxaline-6-carboxylic acid]",> 5.00,> 5.00
"COc1ccc(-c2nc3ccc(-c4nnn[nH]4)cc3nc2-c2ccc(OC)cc2)cc1 [Example 31, 2,3-Bis(4-methoxyphenyl)-6-(1H-tetrazol-5-yl)quinoxaline]",> 5.00,> 5.00
